# Reference: patent US20240247253A1, “PRODUCTION METHOD OF POLYPEPTIDE, TAG, EXPRESSION VECTOR, EVALUATION METHOD OF POLYPEPTIDE, PRODUCTION METHOD OF NUCLEIC ACID DISPLAY LIBRARY, AND SCREENING METHOD” (FUJIFILM Corporation, priority 2021, published 2024)
# How the values were obtained:
# [1] = test system: cell-free peptide synthesis system derived from Escherichia coli; assay: Cell-free biosynthesis of the integrin binding peptide fusion protein with tag, reaction time 10 minutes, ELISA; type: biochemical; details: for Biosynthesis amount of fusion protein: relative value, control without tag = 1, reaction time 10 minutes, fusion protein SEQ ID NO: 5, SKIK encoded by SEQ ID NO: 110
# Protocol: (§1) The cell-free biosynthesis of the polypeptide was carried out in a translation solution containing a template DNA, PUREfrex 2.0 (GeneFrontier, PF201-0.25-5), and Aminoacyl tRNA (1). 1.25 μL (62.5 ng) of the template DNA prepared to 50 ng/μL, 2.5 μL of PUREfrex 2.0 Solution I, 0.25 μL of Solution II, 0.5 μL of Solution III, and 0.5 μL of Aminoacyl tRNA (1) were mixed and mixture was subjected to a reaction at 37° ° C. for 1 hour.
# (§2) The amount of the biosynthesized polypeptide was measured by ELISA. 50 ng of Recombinant Human Integrin αVβ3 (R&D systems, 3050-AV-050) was immobilized in each well of a 96-well plate and blocked with Blocker Casein in PBS (Thermo, 37528), and then a cell-free biosynthesis solution diluted with Can Get Signal Immunoreaction Enhancer Solution I (TOYOBO, NKB-101) containing 5 mmol/L MgCl2 was added thereto, and the mixture was subjected to a reaction at room temperature for 3 hours. After washing with 5 mmol/L MgCl2/0.05% Tween 20-containing phosphate buffered saline (PBS), an anti-Myc antibody (Cell Signaling, 14038S) diluted with Can Get Signal Immunoreaction Enhancer Solution II (TOYOBO, NKB-101) was added thereto, and the mixture was subjected to a reaction at room temperature for 2 hours. After washing with PBS containing 5 mmol/L MgCl2/0.05% Tween 20, Super Signal ELISA Femto Substrate (Thermo, 37075) was added thereto, and the luminescence was measured. The amount of the fusion protein in the cell-free biosynthesis solution was calculated based on a calibration curve created from the fusion protein having a known concentration. The luminescence measurement was performed twice, and the average value of the amounts of the fusion protein was calculated. Table 2-1 and Table 2-2 show relative values of the biosynthesis amounts of respective fusion proteins in a case where the amount of the fusion protein of the control example was set to the reference value 1.
# As a comparative control, a SKIK tag represented by SEQ ID NO: 107 was selected. The polypeptide to be biosynthesized is the fusion protein containing the integrin binding peptide, as in Example 1.
# Using a template DNA including DNA sequences (SEQ ID NOs: 73 to 98) encoding VKKX tags represented by SEQ ID NOs: 27 to 52 produced in Example 1, and a DNA sequence (SEQ ID NO: 110) encoding a SKIK tag represented by SEQ ID NO: 107 produced in Example 2, the biosynthesis reaction was performed in the same manner as in Example 1 by setting the reaction time to 10 minutes. In the same manner in Example 1, the fusion protein was expressed by the cell-free peptide synthesis system and quantified by ELISA. The measurement was performed twice, and the average value of the amounts of the fusion protein was calculated. […] As control example used in Example 1, the control example of the reference value 1 has a form in which the base sequence (SEQ ID NO: 6) encoding the fusion protein is arranged immediately after the start codon ATG.
# [2] = test system: cell-free peptide synthesis system derived from Escherichia coli; assay: Cell-free biosynthesis of the integrin binding peptide fusion protein with N-terminal tag, 1 hour reaction, amount measured by ELISA; type: biochemical
# From the text: In the cell-free peptide synthesis system derived from Escherichia coli, the effect of the VKKX tag on the biosynthesis amount of the polypeptide was examined. As a polypeptide to be biosynthesized, an integrin binding peptide containing cysteine and chloroacetyl lysine was selected. In this polypeptide, a thiol group of cysteine and a chloroacetyl group of chloroacetyl lysine spontaneously form a thioether bond to become a cyclic polypeptide.
# A fusion protein in which an integrin binding peptide, a Myc tag, and a HiBiT tag were linked in this order was designed. As a spacer, Gly-Gly-Ser was inserted between the integrin binding peptide and the Myc tag and between the Myc tag and the HiBiT tag. The amino acid sequence of this fusion protein is SEQ ID NO: 5, and the base sequence encoding this fusion protein is SEQ ID NO: 6. In SEQ ID NO: 5, the integrin binding peptide ranges to the amino acid at the twelfth position (that is, alanine) from an N-terminal, and the amino acid at eleventh position from the N-terminal is chloroacetyl lysine. The triplet TAG at the positions 31 to 33 from the 5′ terminal of the base sequence set forth in SEQ ID NO: 6 was assigned to the codon of chloroacetyl lysine. The end of the base sequence set forth in SEQ ID NO: 6 is the stop codon TAA.
# A base sequence encoding a tagged fusion protein in which methionine, a VKKX tag (any of SEQ ID nOs: 7 to 52), and a fusion protein (SEQ ID NO: 5) were linked in this order was designed. In this base sequence, a base sequence (any of SEQ ID nOs: 53 to 98) encoding a VKKX tag is arranged immediately after the start codon ATG, and a base sequence encoding a fusion protein immediately after the base sequence (SEQ ID NO: 6) encoding the VKKX tag is arranged.
# As a control example for evaluating the effect of the VKKX tag, a base sequence in which a base sequence (SEQ ID NO: 6) encoding a fusion protein arranged immediately after the start codon ATG was designed.
# In order to translate chloroacetyl lysine which is an unnatural amino acid, a tRNA in which the anticodon was CUA and paired with the UAG codon of mRNA was prepared. This tRNA was aminoacylated with an N-chloroacetyl lysine hosphoro 2′ deoxyribocytidylylriboadenosine (pdCpA) ester. This aminoacyl tRNA is referred to as an Aminoacyl tRNA (1).
# as §1
# as §2, with “Table 2-1 and Table 2-2 show relative values of the biosynthesis amounts of respective fusion proteins in a case where the amount of the fusion protein of the control example was set to the reference value 1.” left out
Substance,Biosynthesis amount of fusion protein [1],"increase rate of expression level of the fusion protein ([1]; text of Example 3, incubation time of biosynthesis reaction 10 minutes)","Biosynthesis amount of fusion protein ([2]; tag encoded by base sequence SEQ ID NO 108, GC content 8%, control without tag = 1)","Biosynthesis amount of fusion protein ([2]; tag encoded by base sequence SEQ ID NO 109, GC content 25%, control without tag = 1)","Biosynthesis amount of fusion protein ([2]; tag encoded by base sequence SEQ ID NO 110, GC content 42%, control without tag = 1)","increase of biosynthesis amount of the fusion protein ([2]; Example 1, versus control without tag, fusion protein SEQ ID NO: 5, 1 hour)","Biosynthesis amount of fusion protein ([2]; relative value, control example without tag = 1, fusion protein SEQ ID NO: 5, 37° C. for 1 hour, average of two measurements)","Biosynthesis amount of fusion protein ([2]; tag encoded by base sequence SEQ ID NO 73, GC content 17%, control without tag = 1)","Biosynthesis amount of fusion protein ([2]; tag encoded by base sequence SEQ ID NO 111, GC content 33%, control without tag = 1)","Biosynthesis amount of fusion protein ([2]; tag encoded by base sequence SEQ ID NO 112, GC content 50%, control without tag = 1)"
"SEQ ID NO: 107: tag consisting of an amino acid sequence of SKIK, disclosed in WO2016/204198A; comparative control (SKIK Tag) [reference compound]",1.27,1.3 times,3.79,4.18,1.46,–,–,–,–,–
"SEQ ID NO: 27: VKKX tag, amino acid sequence VKKTKT (VKKX Tag)",12.81,–,–,–,–,4.9 times,4.94,4.94,3.83,3.77
